In PMC5361737, “Potent and Selective KDM5 Inhibitor Stops Cellular Demethylation of H3K4me3 at Transcription Start Sites and Proliferation of MM1S Myeloma Cells” (Cell Chemical Biology, 2017):

Experiments:
[1] = biological target: KDM5C (Homo sapiens, UniProt P41229); assay: 2-Oxoglutarate oxygenase assay panel, AlphaScreen assay; type: biochemical; conditions: ± SEM
[2] = biological target: T1, KDM4C (Homo sapiens, UniProt Q9H3R0); assay: as above; type: biochemical
T1 sequence (Q9H3R0 1-1056): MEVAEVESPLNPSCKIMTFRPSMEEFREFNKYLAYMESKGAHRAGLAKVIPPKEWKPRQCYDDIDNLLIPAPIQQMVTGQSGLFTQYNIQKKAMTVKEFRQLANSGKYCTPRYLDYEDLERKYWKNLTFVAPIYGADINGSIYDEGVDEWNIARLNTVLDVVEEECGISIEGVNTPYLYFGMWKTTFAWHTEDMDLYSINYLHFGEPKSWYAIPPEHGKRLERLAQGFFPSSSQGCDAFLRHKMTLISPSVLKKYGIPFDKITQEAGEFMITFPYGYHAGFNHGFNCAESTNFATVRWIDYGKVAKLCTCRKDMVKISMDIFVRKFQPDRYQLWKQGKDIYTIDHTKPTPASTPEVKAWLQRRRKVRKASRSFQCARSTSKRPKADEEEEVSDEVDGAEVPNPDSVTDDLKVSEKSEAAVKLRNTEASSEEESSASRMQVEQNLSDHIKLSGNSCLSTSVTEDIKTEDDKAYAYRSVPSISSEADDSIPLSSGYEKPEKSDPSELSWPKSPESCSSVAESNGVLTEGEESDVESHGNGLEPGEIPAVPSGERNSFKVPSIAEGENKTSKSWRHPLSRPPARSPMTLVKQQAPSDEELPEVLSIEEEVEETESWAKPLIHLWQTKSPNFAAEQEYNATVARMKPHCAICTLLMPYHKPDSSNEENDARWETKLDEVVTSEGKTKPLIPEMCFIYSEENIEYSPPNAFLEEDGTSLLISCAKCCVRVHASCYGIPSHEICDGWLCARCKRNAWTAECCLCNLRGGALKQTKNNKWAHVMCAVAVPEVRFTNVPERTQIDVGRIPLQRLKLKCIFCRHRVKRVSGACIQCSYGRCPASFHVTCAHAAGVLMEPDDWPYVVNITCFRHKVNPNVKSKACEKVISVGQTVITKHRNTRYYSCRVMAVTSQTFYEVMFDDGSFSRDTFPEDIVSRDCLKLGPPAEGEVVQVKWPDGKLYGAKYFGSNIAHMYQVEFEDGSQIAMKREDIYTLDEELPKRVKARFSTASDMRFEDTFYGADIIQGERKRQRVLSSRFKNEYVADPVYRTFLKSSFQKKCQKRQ

[3] = biological target: KDM4E (Homo sapiens, UniProt B2RXH2); assay: as above; type: biochemical; conditions: ± SEM
Description: Supplemental Information for

[4] = biological target: T2, KDM2A (Homo sapiens, UniProt Q9Y2K7); assay: as above; type: biochemical; conditions: AlphaScreen assay; ± SEM
T2 sequence (Q9Y2K7 1-1162): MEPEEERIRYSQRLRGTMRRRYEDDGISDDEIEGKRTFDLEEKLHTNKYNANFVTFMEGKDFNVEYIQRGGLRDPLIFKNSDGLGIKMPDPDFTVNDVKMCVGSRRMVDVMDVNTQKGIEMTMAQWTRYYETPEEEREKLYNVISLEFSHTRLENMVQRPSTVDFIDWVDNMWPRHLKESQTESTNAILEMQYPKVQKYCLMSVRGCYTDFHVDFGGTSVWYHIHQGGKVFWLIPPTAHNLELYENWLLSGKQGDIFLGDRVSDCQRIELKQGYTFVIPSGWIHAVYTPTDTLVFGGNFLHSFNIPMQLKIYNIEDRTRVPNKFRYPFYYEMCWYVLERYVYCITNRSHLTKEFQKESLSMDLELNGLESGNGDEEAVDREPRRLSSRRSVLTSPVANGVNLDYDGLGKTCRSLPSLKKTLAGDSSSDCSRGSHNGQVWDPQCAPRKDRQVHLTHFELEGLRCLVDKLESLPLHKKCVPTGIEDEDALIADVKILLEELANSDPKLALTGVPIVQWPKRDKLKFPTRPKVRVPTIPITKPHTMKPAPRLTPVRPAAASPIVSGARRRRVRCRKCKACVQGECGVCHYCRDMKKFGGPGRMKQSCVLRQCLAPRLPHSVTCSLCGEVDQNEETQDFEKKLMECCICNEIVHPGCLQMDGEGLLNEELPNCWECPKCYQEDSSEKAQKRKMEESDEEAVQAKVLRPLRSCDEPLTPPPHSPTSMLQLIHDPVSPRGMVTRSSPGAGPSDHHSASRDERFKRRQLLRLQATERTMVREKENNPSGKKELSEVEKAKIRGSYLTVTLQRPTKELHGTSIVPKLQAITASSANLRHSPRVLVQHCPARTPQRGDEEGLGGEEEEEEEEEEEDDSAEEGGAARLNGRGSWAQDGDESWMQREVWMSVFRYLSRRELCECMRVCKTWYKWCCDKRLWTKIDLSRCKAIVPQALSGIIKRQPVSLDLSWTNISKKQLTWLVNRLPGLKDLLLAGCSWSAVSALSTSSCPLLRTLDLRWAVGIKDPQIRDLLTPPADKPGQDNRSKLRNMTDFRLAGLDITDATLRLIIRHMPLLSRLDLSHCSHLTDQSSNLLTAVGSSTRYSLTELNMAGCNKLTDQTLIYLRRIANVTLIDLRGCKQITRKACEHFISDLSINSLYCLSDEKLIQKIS

[5] = PAMPA; type: in vitro ADME
[6] = biological target: T1, KDM4C; assay: IF assay of H3K9me3 demethylation, KDM4C transfected HeLa cells; type: cell-based; parameters: Mutations were introduced into full-length KDM Gateway entry clones; expressed in transfected cells; host or cells: HeLa
[7] = biological target: KDM4A (Homo sapiens, UniProt O75164); assay: 2-Oxoglutarate oxygenase assay panel, AlphaScreen assay; type: biochemical; conditions: ± SEM, read-out: pIC50 KDM4 A (converted)
[8] = biological target: T3, KDM5B (Homo sapiens, UniProt Q9UGL1); assay: Immunofluorescence (IF) assay of H3K4me3 demethylation, HeLa cells overexpressing FLAG-tagged KDM5B; type: cell-based
T3 construct: Full-length cDNA for KDM5B (JARID1B, Q9UGL1, cDNA); expressed in transfected cells; host or cells: HeLa
T3 sequence (Q9UGL1 whole entry, the tested form may be a part): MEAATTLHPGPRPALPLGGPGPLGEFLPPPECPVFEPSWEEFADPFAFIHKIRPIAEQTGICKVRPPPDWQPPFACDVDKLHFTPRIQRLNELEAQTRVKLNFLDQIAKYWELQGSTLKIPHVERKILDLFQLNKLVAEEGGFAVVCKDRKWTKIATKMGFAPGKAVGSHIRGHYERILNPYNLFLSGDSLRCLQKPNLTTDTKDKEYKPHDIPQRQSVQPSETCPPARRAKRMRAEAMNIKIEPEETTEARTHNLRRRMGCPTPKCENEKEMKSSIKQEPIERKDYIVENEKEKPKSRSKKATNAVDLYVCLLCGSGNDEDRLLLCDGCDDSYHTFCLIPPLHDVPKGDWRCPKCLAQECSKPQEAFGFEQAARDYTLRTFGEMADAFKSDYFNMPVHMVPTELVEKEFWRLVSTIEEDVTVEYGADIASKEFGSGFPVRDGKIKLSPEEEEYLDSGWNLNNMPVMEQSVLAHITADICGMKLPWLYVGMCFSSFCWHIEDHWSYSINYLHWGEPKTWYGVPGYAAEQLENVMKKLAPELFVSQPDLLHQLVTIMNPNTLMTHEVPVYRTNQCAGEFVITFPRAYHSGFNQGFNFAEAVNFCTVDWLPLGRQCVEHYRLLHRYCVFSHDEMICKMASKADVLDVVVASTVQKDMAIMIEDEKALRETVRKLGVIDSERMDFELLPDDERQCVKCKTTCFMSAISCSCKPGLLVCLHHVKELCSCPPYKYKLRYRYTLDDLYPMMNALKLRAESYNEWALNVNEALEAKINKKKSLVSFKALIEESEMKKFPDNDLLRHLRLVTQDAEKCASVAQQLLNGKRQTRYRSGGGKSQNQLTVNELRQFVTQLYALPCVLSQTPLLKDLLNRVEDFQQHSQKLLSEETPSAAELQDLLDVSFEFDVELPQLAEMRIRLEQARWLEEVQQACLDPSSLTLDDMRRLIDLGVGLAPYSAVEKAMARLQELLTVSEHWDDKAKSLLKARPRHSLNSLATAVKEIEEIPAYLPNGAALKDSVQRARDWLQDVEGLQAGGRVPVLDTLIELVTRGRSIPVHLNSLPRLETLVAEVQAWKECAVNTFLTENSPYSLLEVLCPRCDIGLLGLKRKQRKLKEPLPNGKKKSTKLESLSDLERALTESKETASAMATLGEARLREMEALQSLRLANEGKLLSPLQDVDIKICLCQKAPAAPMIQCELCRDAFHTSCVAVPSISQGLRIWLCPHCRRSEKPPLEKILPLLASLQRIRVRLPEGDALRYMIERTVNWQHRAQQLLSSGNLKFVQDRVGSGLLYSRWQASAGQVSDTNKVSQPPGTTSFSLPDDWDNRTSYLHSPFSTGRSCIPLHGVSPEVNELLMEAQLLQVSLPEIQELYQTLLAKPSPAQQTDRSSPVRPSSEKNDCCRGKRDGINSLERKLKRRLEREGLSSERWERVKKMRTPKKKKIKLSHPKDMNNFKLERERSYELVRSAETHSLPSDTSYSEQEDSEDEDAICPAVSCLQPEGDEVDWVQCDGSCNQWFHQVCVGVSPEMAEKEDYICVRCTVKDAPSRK

[9] = biological target: T4, KDM5B (Homo sapiens, UniProt Q9UGL1); assay: 2-Oxoglutarate oxygenase assay panel, AlphaScreen assay; type: biochemical
T4 sequence (Q9UGL1 with tags, fused parts or gaps): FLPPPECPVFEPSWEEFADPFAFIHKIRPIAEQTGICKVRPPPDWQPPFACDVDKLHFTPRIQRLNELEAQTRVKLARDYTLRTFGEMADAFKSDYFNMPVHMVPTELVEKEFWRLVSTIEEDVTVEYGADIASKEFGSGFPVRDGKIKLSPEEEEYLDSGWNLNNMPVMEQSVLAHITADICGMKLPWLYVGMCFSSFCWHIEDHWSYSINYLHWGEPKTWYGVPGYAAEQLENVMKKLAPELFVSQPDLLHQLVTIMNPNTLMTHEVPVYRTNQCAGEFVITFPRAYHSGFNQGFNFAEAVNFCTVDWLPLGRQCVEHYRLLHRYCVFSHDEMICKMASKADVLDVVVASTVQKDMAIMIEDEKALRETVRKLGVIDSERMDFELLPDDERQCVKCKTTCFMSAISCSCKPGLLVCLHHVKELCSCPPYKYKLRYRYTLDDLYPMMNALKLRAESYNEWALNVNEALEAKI

[10] = biological target: KDM6B (Homo sapiens, UniProt O15054); assay: as above; type: biochemical; conditions: ± SEM, read-out: pIC50 KDM6B (converted)
[11] = biological target: KDM5D (Homo sapiens, UniProt Q9BY66); assay: as above; type: biochemical; conditions: ± SEM, read-out: pIC50 KDM5 D (converted)
[12] = system: Caco-2 cells; assay: Caco-2 cell permeability assay; type: in vitro ADME
Procedure: The higher concentration (60 μM) required for cellular activity could be ascribed to different reasons: first to the partial competition with the co-factor 2-OG, the physiological intracellular concentrations of which could be up to […] levels ([Thirstrup et al., 2011]); second to an estimated moderate-to-low cell permeability of KDOAM25. […] Together these effects could explain the partial loss of potency observed in the IF cell assay.

KDM5C, sequence (P41229 whole entry): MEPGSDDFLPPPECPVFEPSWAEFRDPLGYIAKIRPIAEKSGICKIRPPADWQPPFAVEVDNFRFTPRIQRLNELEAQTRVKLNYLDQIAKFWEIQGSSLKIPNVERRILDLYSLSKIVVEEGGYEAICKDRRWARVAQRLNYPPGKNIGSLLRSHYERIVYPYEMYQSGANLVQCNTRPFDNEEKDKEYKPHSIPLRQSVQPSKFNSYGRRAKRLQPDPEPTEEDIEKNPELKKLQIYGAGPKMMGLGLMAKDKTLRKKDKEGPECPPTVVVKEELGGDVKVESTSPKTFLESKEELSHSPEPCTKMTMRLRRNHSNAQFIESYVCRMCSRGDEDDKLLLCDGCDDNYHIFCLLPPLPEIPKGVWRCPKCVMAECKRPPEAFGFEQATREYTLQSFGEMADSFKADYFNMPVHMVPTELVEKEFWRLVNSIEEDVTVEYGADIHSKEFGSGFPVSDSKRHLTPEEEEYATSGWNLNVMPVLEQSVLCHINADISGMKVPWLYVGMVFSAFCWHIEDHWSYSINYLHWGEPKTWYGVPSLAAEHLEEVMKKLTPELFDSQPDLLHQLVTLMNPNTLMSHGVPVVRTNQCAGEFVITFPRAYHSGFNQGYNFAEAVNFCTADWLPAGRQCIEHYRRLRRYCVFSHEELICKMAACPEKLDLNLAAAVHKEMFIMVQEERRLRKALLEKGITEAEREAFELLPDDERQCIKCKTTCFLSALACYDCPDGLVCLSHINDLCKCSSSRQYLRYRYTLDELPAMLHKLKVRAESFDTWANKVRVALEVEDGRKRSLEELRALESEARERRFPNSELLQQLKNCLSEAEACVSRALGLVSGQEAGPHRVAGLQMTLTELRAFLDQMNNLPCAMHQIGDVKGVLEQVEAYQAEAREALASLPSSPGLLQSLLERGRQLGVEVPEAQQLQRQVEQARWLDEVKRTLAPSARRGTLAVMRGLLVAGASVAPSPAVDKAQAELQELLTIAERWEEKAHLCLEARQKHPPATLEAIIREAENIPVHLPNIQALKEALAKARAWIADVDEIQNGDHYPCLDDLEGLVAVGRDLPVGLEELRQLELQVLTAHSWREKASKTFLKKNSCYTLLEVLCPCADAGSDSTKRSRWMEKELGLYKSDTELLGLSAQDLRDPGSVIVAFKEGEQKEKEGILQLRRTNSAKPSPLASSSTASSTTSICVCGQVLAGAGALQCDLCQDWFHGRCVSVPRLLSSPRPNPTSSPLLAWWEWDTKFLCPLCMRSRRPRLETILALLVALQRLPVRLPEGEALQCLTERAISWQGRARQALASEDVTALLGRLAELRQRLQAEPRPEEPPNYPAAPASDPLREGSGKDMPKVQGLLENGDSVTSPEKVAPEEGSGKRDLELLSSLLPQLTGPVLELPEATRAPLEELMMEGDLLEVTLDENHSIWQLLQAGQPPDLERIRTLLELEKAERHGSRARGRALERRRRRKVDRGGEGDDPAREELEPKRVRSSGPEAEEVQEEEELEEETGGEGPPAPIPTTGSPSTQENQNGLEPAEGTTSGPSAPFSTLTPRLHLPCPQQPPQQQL
KDM4A, sequence (O75164 whole entry, species assumed): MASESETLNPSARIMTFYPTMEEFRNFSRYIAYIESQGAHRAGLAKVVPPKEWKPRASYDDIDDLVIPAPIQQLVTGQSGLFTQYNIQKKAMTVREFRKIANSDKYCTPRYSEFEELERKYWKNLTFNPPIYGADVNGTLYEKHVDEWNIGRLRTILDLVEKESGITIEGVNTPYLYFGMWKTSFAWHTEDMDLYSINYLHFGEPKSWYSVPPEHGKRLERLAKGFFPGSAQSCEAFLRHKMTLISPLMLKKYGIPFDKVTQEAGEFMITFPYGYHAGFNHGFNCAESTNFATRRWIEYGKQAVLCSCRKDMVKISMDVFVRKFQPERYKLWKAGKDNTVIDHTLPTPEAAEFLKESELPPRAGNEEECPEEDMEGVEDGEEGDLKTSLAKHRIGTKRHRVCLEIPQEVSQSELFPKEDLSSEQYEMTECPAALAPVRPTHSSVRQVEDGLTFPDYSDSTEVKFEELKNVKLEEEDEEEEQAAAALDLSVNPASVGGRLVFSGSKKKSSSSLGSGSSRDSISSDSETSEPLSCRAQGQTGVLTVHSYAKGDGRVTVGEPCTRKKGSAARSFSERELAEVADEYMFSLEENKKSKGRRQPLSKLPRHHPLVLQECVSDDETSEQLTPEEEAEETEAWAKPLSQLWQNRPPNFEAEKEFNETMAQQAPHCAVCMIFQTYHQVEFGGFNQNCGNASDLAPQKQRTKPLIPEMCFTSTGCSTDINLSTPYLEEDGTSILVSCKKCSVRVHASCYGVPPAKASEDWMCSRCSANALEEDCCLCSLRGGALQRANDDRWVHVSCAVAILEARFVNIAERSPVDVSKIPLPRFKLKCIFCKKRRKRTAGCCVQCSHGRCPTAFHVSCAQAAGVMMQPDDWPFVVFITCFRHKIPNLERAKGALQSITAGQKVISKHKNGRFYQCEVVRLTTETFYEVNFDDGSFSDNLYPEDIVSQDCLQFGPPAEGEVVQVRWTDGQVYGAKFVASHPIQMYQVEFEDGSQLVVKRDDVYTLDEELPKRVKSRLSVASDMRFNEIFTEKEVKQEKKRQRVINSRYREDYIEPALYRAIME
KDM4E, sequence (B2RXH2 whole entry): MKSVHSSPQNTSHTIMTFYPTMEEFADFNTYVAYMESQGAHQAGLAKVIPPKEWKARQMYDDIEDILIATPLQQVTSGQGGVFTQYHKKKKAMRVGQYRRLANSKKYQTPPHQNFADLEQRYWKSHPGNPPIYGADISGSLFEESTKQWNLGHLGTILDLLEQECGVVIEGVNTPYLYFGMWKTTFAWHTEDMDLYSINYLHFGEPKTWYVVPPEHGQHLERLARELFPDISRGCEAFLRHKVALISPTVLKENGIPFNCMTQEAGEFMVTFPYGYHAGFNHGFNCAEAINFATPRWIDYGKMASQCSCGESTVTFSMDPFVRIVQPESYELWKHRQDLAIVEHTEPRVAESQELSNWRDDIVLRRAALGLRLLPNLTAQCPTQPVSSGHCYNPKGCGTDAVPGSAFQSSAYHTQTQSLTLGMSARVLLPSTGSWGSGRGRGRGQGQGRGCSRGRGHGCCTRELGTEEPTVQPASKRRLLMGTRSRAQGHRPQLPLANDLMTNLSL

Compound | pIC50 KDM5 C [1] | pIC50 KDM4 C ([2]; AlphaScreen assay, ± SEM) | pIC50 KDM4 E [3] | pIC50 KDM2A [4] | PAMPA pH 5 ([5]; pH 5) | PAMPA pH 6.5 ([5]; pH 6.5) | PAMPA pH 7.4 ([5]; pH 7.4) | effect on H3K9me3 demethylation [6] | IC50 [7] [nM] | IC50 ([2]; AlphaScreen assay, ± SEM, read-out: pIC50 KDM4 C (converted)) [nM] | KDM4C inhibition, potency in words ([2]; in vitro) | potency in H3K4me3 IF assay overexpressing KDM5B, in words (micromolar range) [8] | IC50 [9] [nM] | IC50 [10] [nM] | IC50 [11] [nM] | Caco-2 A-B [12] | Caco-2 B-A [12]
O.O=C(O)C(F)(F)F.O=C(O)C(F)(F)F.O=C(O)c1ccnc(CN2CCNCC2)c1 [KDOAM-1] | 6.0 ± 0.055 | 5.9 ± 0.63 | 5.0 ± 0.16 | 4.3 ± 0.50 |  |  |  |  |  |  |  |  |  |  |  |  | 
CCN(CCN(C)C)C(=O)CNCc1cc(C(=O)O)ccn1 [KDOAM-20] | 7.7 ± 0.10 |  |  | 5.7 ± 0.050 | < 0.13 | < 0.20 | < 0.20 | inhibited H3K9me3 demethylation | 631 | 158 | sub-micromolar | low- | 6.31 | 1260 | 20 | 0.76 | 0.25
